The assay deals with BDF1 mice, B16 melanoma ip, median survival T/C. The experiment in a line: NCI In Vivo Anticancer Drug Screen. Data for tumor model B16 Melanoma (intraperitoneal) in B6D2F1 (BDF1) mice. As to conditions: endpoint: median survival time, higher = longer survival. In short, it runs like this:
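Read-out: survival or tumor size, given as treated/control ratio. Controls received vehicle only; animals bore transplantable tumors.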

[1] abbreviates: dose: 6.25 mg/kg/injection, schedule: Q01DX009 (ip), vehicle: Klucel (hydroxypropylcellulose) (HPC).
Setting [2] is: dose: 12.5 mg/kg/injection, schedule: Q01DX009 (ip), vehicle: Klucel (hydroxypropylcellulose) (HPC).
[3] abbreviates: dose: 12.5 mg/kg/injection, schedule: Q01DX009 (ip), vehicle: saline.
The mark [4] stands for this setting: dose: 25.0 mg/kg/injection, schedule: Q01DX009 (ip), vehicle: saline.
Where [5] appears, read: dose: 50.0 mg/kg/injection, schedule: Q01DX009 (ip), vehicle: saline.
Where [6] appears, read: dose: 100.0 mg/kg/injection, schedule: Q01DX009 (ip), vehicle: saline.
Setting [7] is: dose: 200.0 mg/kg/injection, schedule: Q01DX009 (ip), vehicle: saline.
[8] abbreviates: dose: 100.0 mg/kg/injection, schedule: Q01DX009 (ip), vehicle: Klucel (hydroxypropylcellulose) (HPC).
[9] abbreviates: dose: 200.0 mg/kg/injection, schedule: Q01DX009 (ip), vehicle: Klucel (hydroxypropylcellulose) (HPC).
The mark [10] stands for this setting: dose: 400.0 mg/kg/injection, schedule: Q01DX009 (ip), vehicle: Klucel (hydroxypropylcellulose) (HPC).
Setting [11] is: dose: 25.0 mg/kg/injection, schedule: Q01DX009 (ip), vehicle: Klucel (hydroxypropylcellulose) (HPC).
Where [12] appears, read: dose: 50.0 mg/kg/injection, schedule: Q01DX009 (ip), vehicle: Klucel (hydroxypropylcellulose) (HPC).
Setting [13] is: dose: 50.0 mg/kg/injection, schedule: Q01DX009 (ip), vehicle: saline with Tween-80.
[14] abbreviates: dose: 100.0 mg/kg/injection, schedule: Q01DX009 (ip), vehicle: saline with Tween-80.
The mark [15] stands for this setting: dose: 200.0 mg/kg/injection, schedule: Q01DX009 (ip), vehicle: saline with Tween-80.
[16] abbreviates: dose: 6.25 mg/kg/injection, schedule: Q01DX009 (ip), vehicle: saline.
The mark [17] stands for this setting: dose: 25.0 mg/kg/injection, schedule: Q01DX009 (ip), vehicle: saline with Tween-80.

Several values for one entry are separate records, joined by “and”; a condition that tells them apart may be missing. Equal entries are not always repeated. Inconclusive results and toxic doses are left out. Peptide text beside a SMILES is read from it. * marks the point of attachment. Boc = CC(C)(C)OC(=O)*; NHNH2 = NN*

With `COc1ccc2cc3[n+](cc2c1OC)CCc1cc2c(cc1-3)OCO2`, the T/C is, setting by setting: (dose: 1.5 mg/kg/injection, schedule: Q01DX009 (ip), vehicle: carboxymethylcellulose (CMC)) 105 % of control; (dose: 2.5 mg/kg/injection, schedule: Q01DX009 (ip), vehicle: Klucel (hydroxypropylcellulose) (HPC)) 106 % of control; (dose: 2.5 mg/kg/injection, schedule: Q01DX009 (ip), vehicle: saline with Tween-80) 100 % of control; (dose: 2.5 mg/kg/injection, schedule: Q02DX005 (ip), vehicle: Klucel (hydroxypropylcellulose) (HPC)) 109 % of control; (dose: 3.0 mg/kg/injection, schedule: Q01DX009 (ip), vehicle: carboxymethylcellulose (CMC)) 96 % of control; (dose: 3.12 mg/kg/injection, schedule: Q01DX009 (ip), vehicle: carboxymethylcellulose (CMC)) 95 % of control. Besides, the T/C (dose: 5.0 mg/kg/injection, schedule: Q01DX009 (ip), vehicle: Klucel (hydroxypropylcellulose) (HPC)) is 108 % of control; the T/C (dose: 5.0 mg/kg/injection, schedule: Q01DX009 (ip), vehicle: saline with Tween-80) is 110 % of control; the T/C (dose: 5.0 mg/kg/injection, schedule: Q02DX005 (ip), vehicle: Klucel (hydroxypropylcellulose) (HPC)) is 110 % of control; the T/C under setting [1] was 105 % of control; the T/C (dose: 10.0 mg/kg/injection, schedule: Q01DX009 (ip), vehicle: saline with Tween-80) is 102 % of control; the T/C (dose: 10.0 mg/kg/injection, schedule: Q02DX005 (ip), vehicle: Klucel (hydroxypropylcellulose) (HPC)) is 100 % of control. Also, under setting [2], the T/C was 106 % of control.
On to `O=C1CN(CN2CCOCC2)C(=O)CN1CN1CCOCC1`, for which the T/C was 98 % of control under setting [3]; 102 % of control under setting [4]; 112 % of control under setting [5]; 104 % of control under setting [6]; 101 % of control under setting [7].
For `COc1ccc(NC(=O)COc2ccc(Cl)cc2)cc1`, the T/C under setting [8] was 90 % of control, the T/C under setting [9] was 100 % of control and the T/C under setting [10] is 86 % of control.
As to `CC(O)CNCCNc1ccc(NCCNCC(C)O)c2c1C(=O)c1c(O)ccc(O)c1C2=O` (stereo unspecified), the T/C is 150 % of control (dose: 0.5 mg/kg/injection, schedule: Q01DX009 (ip), vehicle: distilled water + Tween-80); 163 % of control (dose: 1.0 mg/kg/injection, schedule: Q01DX009 (ip), vehicle: distilled water + Tween-80); 178 % of control (dose: 2.0 mg/kg/injection, schedule: Q01DX009 (ip), vehicle: distilled water + Tween-80); 222 % of control (dose: 4.0 mg/kg/injection, schedule: Q01DX009 (ip), vehicle: distilled water + Tween-80); 222 % of control (dose: 8.0 mg/kg/injection, schedule: Q01DX009 (ip), vehicle: distilled water + Tween-80); 222 % of control (dose: 16.0 mg/kg/injection, schedule: Q01DX009 (ip), vehicle: distilled water + Tween-80).
With `Nc1ccccc1O`, the T/C was 93 % of control and 99 % of control under setting [5]; 101 % of control and 93 % of control under setting [6]; 91 % of control and 94 % of control under setting [7].
Take `O=C(O)/C=C/C(=O)NCc1ccco1`: the T/C runs as follows: under setting [8], 102 % of control; under setting [9], 86 % of control.
For `C(=N\Nc1nn[nH]n1)/c1ccncc1`, the T/C reads like this: under setting [8], 103 % of control; under setting [9], 104 % of control.
`O=C1CCCC(=O)C1C(C[N+](=O)[O-])c1ccccc1` (stereo unspecified): the T/C is 86 % of control under setting [2], 94 % of control under setting [11], 107 % of control under setting [12] and 107 % of control under setting [8].
For the molecule `CCC(=O)c1ccc2c(c1)N(C(C)CN(C)C)c1ccccc1S2` (stereo unspecified), the T/C was 120 % of control under setting [3], 110 % of control under setting [4] and 105 % of control under setting [5].
`COc1ccc(Cl)cc1NC(=O)c1ccccc1Cl`: the T/C is, setting by setting: under setting [8], 102 % of control; under setting [9], 108 % of control; under setting [10], 100 % of control.
Regarding `CC(C)CC(NC(=O)C(Cc1c[nH]c2ccccc12)NC(=O)OC(C)(C)C)C(=O)NN` (stereo not drawn) (Boc-Trp-Leu-NHNH2; configuration not given here), the T/C runs as follows: under setting [4], 88 % of control; under setting [5], 98 % of control; under setting [6], 88 % of control; under setting [7], 87 % of control.
Regarding `NC(=O)NC(=O)c1cccc([N+](=O)[O-])c1`, the T/C is 104 % of control under setting [13], 102 % of control under setting [14] and 102 % of control under setting [15].
On to `CCN(CC)CCC1CCNCC1`, for which the T/C reads like this: under setting [16], 112 % of control; under setting [3], 112 % of control; under setting [4], 106 % of control.
Take `O=C(O)C1(C(=O)O)CCC1.[NH2-].[NH2-].[Pt+2]`: the T/C reads like this: (dose: 2.0 mg/kg/injection, schedule: Q01DX009 (ip), vehicle: saline) 112 % of control; (dose: 4.0 mg/kg/injection, schedule: Q01DX009 (ip), vehicle: saline) 115 % of control; (dose: 6.25 mg/kg/injection, schedule: Q01DX009 (ip), vehicle: other) 123 % of control; (dose: 8.0 mg/kg/injection, schedule: Q01DX009 (ip), vehicle: saline) 150 % of control; (dose: 12.5 mg/kg/injection, schedule: Q01DX009 (ip), vehicle: other) 176 % of control; (dose: 16.0 mg/kg/injection, schedule: Q01DX009 (ip), vehicle: saline) 176 % of control. The T/C reads like this: (dose: 25.0 mg/kg/injection, schedule: Q01DX009 (ip), vehicle: other) 160 % of control and 164 % of control; (dose: 32.0 mg/kg/injection, schedule: Q01DX009 (ip), vehicle: saline) 176 % of control.
With `O=C1CCC(=O)N1CO`, the T/C (dose: 37.5 mg/kg/injection, schedule: Q01DX009 (ip), vehicle: saline) was 107 % of control and 112 % of control; the T/C (dose: 75.0 mg/kg/injection, schedule: Q01DX009 (ip), vehicle: saline) was 104 % of control and 107 % of control; the T/C (dose: 150.0 mg/kg/injection, schedule: Q01DX009 (ip), vehicle: saline) was 109 % of control.
In the case of `CCc1ccc(NC(=O)NC(C)C)cc1`, the T/C was 112 % of control under setting [12], 109 % of control under setting [8] and 103 % of control under setting [9].
For `CCN(CC)CCOC(=O)c1ccc(N)cc1`, the T/C runs as follows: under setting [16], 100 % of control; under setting [3], 92 % of control; under setting [4], 100 % of control; under setting [5], 107 % of control; under setting [6], 105 % of control.
With `CCC(C)c1ccc(O)c(C(C)CC)c1` (stereo unspecified), the T/C is, setting by setting: (dose: 88.0 mg/kg/injection, schedule: Q01DX009 (ip), vehicle: saline with Tween-80) 123 % of control; (dose: 133.0 mg/kg/injection, schedule: Q01DX009 (ip), vehicle: saline with Tween-80) 108 % of control; under setting [15], 105 % of control; (dose: 300.0 mg/kg/injection, schedule: Q01DX009 (ip), vehicle: saline with Tween-80) 108 % of control.
Consider `CC(C)CCOC(=O)C(O)c1ccccc1` (stereo unspecified), for which the T/C is, setting by setting: under setting [8], 87 % of control; under setting [9], 93 % of control; under setting [10], 87 % of control.
With `COc1cc(C(=O)c2cc3c(cc2C)OCO3)cc(OC)c1OC`, the T/C is, setting by setting: under setting [1], 105 % of control; under setting [2], 97 % of control and 115 % of control; under setting [11], 98 % of control and 103 % of control; under setting [12], 101 % of control and 112 % of control; under setting [8], 109 % of control; under setting [9], 104 % of control.
On to `O=C(O)CCCSc1nc2ccccc2s1`, for which the T/C reads like this: under setting [14], 100 % of control; under setting [15], 95 % of control.
For `Cc1ccc(NC(=O)CCl)cc1Cl`, the T/C was 97 % of control under setting [17], 102 % of control under setting [13] and 101 % of control under setting [14].
With `CCCCCCCCCCCCCCCCOc1ccccc1C(C)=O`, the T/C by setting is: under setting [17], 92 % of control; under setting [13], 92 % of control; under setting [14], 89 % of control; (dose: 400.0 mg/kg/injection, schedule: Q01DX009 (ip), vehicle: saline with Tween-80) 100 % of control.
On to `CC(=O)OCc1cc(=O)n(C)c2c3c4c(cc12)c(C)cc(=O)n4CO3`, for which the T/C by setting is: under setting [1], 122 % of control; under setting [2], 120 % of control; under setting [11], 121 % of control.
In the case of `CSc1ccc(NC(=O)Nc2ccccc2)cc1`, the T/C under setting [8] is 102 % of control, the T/C under setting [9] is 98 % of control and the T/C under setting [10] was 95 % of control.

The values above are taken from PubChem BioAssay AID192 (DTP/NCI, 2004).
